Laboratory results: paper PMC10548421, “Anticancer Potential of Diruthenium Complexes with Bridging Hydrocarbyl Ligands from Bioactive Alkynols” (Inorganic Chemistry, 2023)
Read-outs that look alike come from different tables or passages of the source.

Key:
[1] = Stability in H2O/CH3OH solution (UV–vis); assay type: physicochemical; conditions: ca. 5:1 v/v
Procedure: (§1) […] The percentage of remaining complex in the solution was calculated by considering the change in absorbance at the characteristic wavelength. The identical procedure was employed to evaluate stability in MeOH and DMEM (about 1:5 v/v) solutions. DMEM stands for the cell culture medium (containing 1000 mg/L glucose and L-glutamine, excluding sodium bicarbonate and phenol red; reference D2902-Merck).

[2] = Stability in DMEM/CH3OH solution (UV–vis); assay type: physicochemical; conditions: ca. 5:1 v/v
Procedure: as §1

[3] = tested on: A2780 human ovarian carcinoma cell line; test: MTT in vitro cytotoxicity, A2780; assay type: cell-based
Procedure: (§2) The cytotoxicity assessment was conducted on various human cancer cell lines, including A2780 ovarian carcinoma, A2780R cisplatin-resistant ovarian carcinoma, MCF-7 breast, HOS osteosarcoma, A549 epithelial lung, PANC-1 pancreatic, Caco-2 colorectal, PC-3 prostate adenocarcinoma, and HeLa cervical cell lines. Additionally, the assessment extended to a normal human fetal fibroblast cell line (MRC-5). Cells were obtained from ATCC collection and cultivated according to the producer’s instructions. Stock solutions of the compounds were prepared in DMF immediately before application, and diluted with H2O to achieve the final concentration of 0.1% v/v DMF.[99] The culture media were enriched with 10% fetal calf serum. Subsequently, the cells were exposed to the tested compounds, vehicle (0.1% v/v DMF) and Triton X-100 (1% v/v), during incubation. The conventional MTT assay was carried out following different incubation periods (Tables 5-6). The absorbance was measured at 570 nm by using a spectrophotometer (Infinite M200, Schoeller Instruments, Prague, Czech Republic). The obtained data are presented as the percentage of cell viability with 100% representing negative control treatment (0.1% v/v DMF) and 0% representing the positive control (Triton X-100). The half-maximal inhibitory concentrations (IC50) were determined from dose–response curves using GraphPad Prism 6 software (GraphPad Software, San Diego, USA).

[4] = tested on: A2780R cisplatin-resistant human ovarian carcinoma cell line; test: MTT in vitro cytotoxicity, A2780R; assay type: cell-based; conditions: incubation 24 h, mean ± SD
Procedure: as §2

[5] = tested on: HOS human osteosarcoma cell line; test: MTT in vitro cytotoxicity, HOS; assay type: cell-based; conditions: incubation 24 h, mean ± SD
Procedure: as §2

[6] = tested on: A549 human lung adenocarcinoma cell line; test: MTT in vitro cytotoxicity, A549; assay type: cell-based; conditions: incubation 24 h, mean ± SD
Procedure: as §2

[7] = tested on: Caco-2 human colorectal adenocarcinoma cell line; test: MTT in vitro cytotoxicity, Caco-2; assay type: cell-based; conditions: incubation 24 h, mean ± SD
Procedure: as §2, with “Additionally,” for “The cytotoxicity assessment was conducted on various human cancer cell lines, including A2780 ovarian carcinoma, A2780R cisplatin-resistant ovarian carcinoma, MCF-7 breast, HOS osteosarcoma, A549 epithelial lung, PANC-1 pancreatic, Caco-2 colorectal, PC-3 prostate adenocarcinoma, and HeLa cervical cell lines. Additionally,”

[8] = tested on: PC-3 human prostate carcinoma cell line; test: MTT in vitro cytotoxicity, PC-3; assay type: cell-based; conditions: incubation 24 h, mean ± SD
Procedure: as §2

[9] = tested on: HeLa human cervical carcinoma cell line; test: MTT in vitro cytotoxicity, HeLa; assay type: cell-based; conditions: incubation 24 h, mean ± SD
Procedure: as §2

[10] = tested on: MRC-5 normal human lung fibroblast cell line; test: MTT in vitro cytotoxicity, MRC-5 (selectivity); assay type: cell-based; conditions: for IC50: normal cells, MTT, incubation 24 h, mean ± SD
Procedure: as §2

[11] = tested on: A2780 cells; test: Apoptosis, Annexin V/propidium iodide flow cytometry; assay type: cell-based, human; conditions: A2780, 4 μM, 24 h
Procedure: (§3) The A2780 ovarian carcinoma cell line was received from Merck (reference 93112519–1VL) and cultured at 37 °C in an environment with 5% CO2. The cultivation was carried out in complete cell culture medium (RPMI-1640 medium, Merck), which was supplemented with 10% fetal bovine serum (FBS, Merck), 1% L-glutamine (Merck) and 1% penicillin–streptomycin–neomycin (PSN, Merck). For the flow cytometry experiments, three independent duplicates were analyzed using a BD FACSVerse flow cytometer (Becton Dickinson, USA). At least 5 × 10^3 events were recorded for each sample. The same procedure was replicated for the experiments described below. Solutions of the complexes were formulated using the stock solutions (Section 5.1).
Apoptosis assay was performed using an Annexin V-FITC/PI commercial kit (V13242, Thermo Fisher Scientific, USA), while caspase 3/7 activation assay was performed with a CellEvent Caspase-3/7 Green Flow Cytometry Assay Kit (C10427, Thermo Fisher Scientific, USA). A2780 cells were seeded in 24-well plates at a density of 5 × 10^4 cells per well; after 24 h, the cells were exposed to 4 μM solution of the selected complex for 24 h. […] The supernatant was collected, cells were washed with PBS (0.1 M, pH 7.4), and trypsin was added (0.25% trypsin-EDTA, GibcoTM). Finally, complete cell culture medium was added to stop the trypsinization, and a final volume of 500 μL was divided into two 250 μL aliquots, following the protocol provided by the manufacturer. Samples were centrifuged, treated with the respective buffers, and then incubated in the dark at room temperature for 10 min (Annexin V-FITC/PI) or at 37 °C for 30 min (CellEventTM Caspase-3/7 Green Detection Reagent).

[12] = tested on: A2780 cells; test: Autophagy analysis (CYTO-ID); assay type: cell-based, human; conditions: A2780, complexes 4 μM, cisplatin 15 μM, 24 h
Procedure: as §3
The potential induction of autophagy by 3a and 3b in A2780 cells was studied with the kit CYTO-ID Autophagy Detection 2.0 (from Enzo Life Sciences, USA), following the protocol provided by the manufacturer. […] The supernatant was collected, cells were washed with warm PBS, detached using 0.25% trypsin-EDTA (Gibco) and resuspended in a cell culture medium. Diluted CYTO-ID Green stain solution (according to the protocol) was used to stain the samples. Following incubation for 30 min in a light-protected environment, the samples were washed with PBS (phosphate-buffered saline). Subsequently, a flow cytometry experiment was conducted. A mixture of chloroquine (10 μM) and rapamycin (0.5 μM) was used as positive control.

[13] = MTT, incubation 24 h, mean ± SD (Table 5), read-out: IC50 A2780
[14] = time-course experiment (Table 6), 24 h, mean ± SD, read-out: IC50 A2780, incubation time 24 h
[15] = time-course experiment (Table 6), 48 h, mean ± SD, read-out: IC50 A2780, incubation time 48 h
[16] = time-course experiment (Table 6), 72 h, mean ± SD, read-out: IC50 A2780, incubation time 72 h

Row | Structure (SMILES) | residual complex % in H2O/CH3OH ([1]; 2 h) [%] | residual complex % in H2O/CH3OH ([1]; 18 h) [%] | residual complex % in DMEM/CH3OH ([2]; 2 h) [%] | residual complex % in DMEM/CH3OH ([2]; 18 h) [%] | IC50 [3, 13] [µM] | IC50 [3, 14] [µM] | IC50 [3, 15] [µM] | IC50 [3, 16] [µM] | IC50 [4] [µM] | IC50 [5] [µM] | IC50 [6] [µM] | IC50 [7] [µM] | IC50 [8] [µM] | IC50 [9] [µM] | IC50 [10] [µM] | proapoptotic effect, Annexin V/PI (in words) [11] | autophagy level (in words) [12] | residual complex % in H2O/CH3OH ([1]; 30 min) [%] | IC50 on healthy MRC-5 cell line compared to the average IC50 values of the cancer cell lines ([10]; 24 h, selectivity)
1 | F[B-](F)(F)F.O=[C]=[Ru+]1([CH]2C=CC=C2)[C](=O)[Ru]1(=[C]=O)([CH]=C=C1CCCC1)[CH]1C=CC=C1 (stereo not drawn) [3a, [Ru2Cp2(CO)3{μ–η^1:η^2-CH=C=(cyclopentylidene)}]BF4] | 96 | 78 | 94 | 12 | 4.2 ± 0.9 | 3.8 ± 0.7 | 3.2 ± 0.2 | 3.1 ± 0.2 | 6.4 ± 1.9 | 14.6 ± 0.5 | 25.3 ± 1.9 | > 50 | 22.2 ± 2.4 | 17.5 ± 2.9 | 38.3 ± 3.9 | much less effective than that of cisplatin | not appreciable |  | 
2 | CC12CCC3c4ccc(O)cc4CCC3C1CCC2=C=[CH][Ru]1(=[C]=O)([CH]2C=CC=C2)[C](=O)[Ru+]1(=[C]=O)[CH]1C=CC=C1.F[B-](F)(F)F (mixture of isomers) [3b, [Ru2Cp2(CO)3{μ–η^1:η^2-CH=C=(estradiolylidene)}]BF4] | 92 | 43 | 88 | 42 | 3.4 ± 0.6 | 4 ± 0.7 | 3 ± 0.3 | 2.8 ± 0.2 | 4.6 ± 1.3 | 12.6 ± 0.5 | 16.1 ± 1.3 | 36 ± 2.7 | 13.4 ± 1.8 | 12.5 ± 1.1 | 25.9 ± 2.9 | much less effective than that of cisplatin | only moderately | 99 | approximately 2 fold
